How the values were obtained:
[1] = Suppression of Phenylbenzoquinone Irritant-Induced Writhing (PBQ); format: in vivo, Carworth Farms CF-1 mice; conditions: subcutaneously, mouse; for Analgesic Activity % Protection, PBQ: at 56 mg./kg.; for ED50: sc, PBQ-induced writhing, read-out: Analgesic Activity ED50, PBQ
Description: Suppression of Phenylbenzoquinone Irritant-Induced Writhing
Groups of 5 Carworth Farms CF-1 mice are pretreated subcutaneously or orally with saline, morphine, codeine or the test compound. Twenty minutes (if treated subcutaneously) or fifty minutes (if treated orally) later, each group is treated with intraperitoneal injection of phenylbenzoquinone, an irritant known to produce abdominal contractions. The mice are observed for 5 minutes for the presence or absence of writhing starting 5 minutes after the injection of the irritant. MPE50 's of the drug pretreatments in blocking writhing are ascertained.
(§1) Results of the above tests are recorded as percent maximum possible effect (%MPE). The %MPE of each group is statistically compared to the %MPE of the standard and the predrug control values. The %MPE is calculated as follows: [formula]
(§2) The following abbreviations are used in the Tables: PBQ=phenylbenzoquinone-induced writhing; TF=tail flick; HP=hot plate; RTC=rat tail clamp; and FJ=flinch jump.
(§3) Single values in the tables are ED50 's. A number followed by a second number in parentheses reports the % protection observed at a given dose. Thus, 31(56) indicates 31% protection at a dose of 56 mg./kg. of body weight.

"Flinch-Jump" Test (FJ) = format: in vivo, male albino rats, Charles River (Sprague-Dawley) CD strain; conditions: sc; subcutaneously; rat flinch jump; read-out: Analgesic Activity ED50, FJ
From the text: A modification of the flinch-jump procedure of Tenen, Psychopharmacologia, 12, 278-285 (1968) is used for determining pain thresholds. Male albino rats (175-200 g.) of the Charles River (Sprague-Dawley) CD strain are used. Prior to receiving the drug, the feet of each rat are dipped into a 20% glycerol/saline solution. The animals are then placed in a chamber and presented with a series of 1-second shocks to the feet which are delivered in increasing intensity at 30-second intervals. These intensities are 0.26, 0.39, 0.52, 0.78, 1.05, 1.31, 1.58, 1.86, 2.13, 2.42, 2.72 and 3.04 mA. Each animal's behavior is rated for the presence of (a) flinch, (b) squeak and (c) jump or rapid forward movement at shock onset. Single upward series of shock intensities are presented to each rat just prior to, and at 0.5, 2, 4 and 24 hours subsequent to drug treatment.
as §1, §2, §3

[2] = Mouse Tail Flick Analgesic Testing (TF); format: in vivo, mice; conditions: for ED50: sc; for ED50 / Analgesic Activity % Protection, TF: subcutaneously, mouse tail flick; for Analgesic Activity % Protection, TF: at 10 mg./kg.
From the text: (b) Mouse Tail Flick Analgesic Testing
Tail flick testing in mice is modified after D'Amour and Smith, J. Pharmacol. Exp. Ther., 72, 74-79 (1941) using controlled high intensity heat applied to the tail. Each mouse is placed in a snug-fitting metal cylinder, with the tail protruding through one end. This cylinder is arranged so that the tail lies flat over a concealed heat lamp. At the onset of testing an aluminum flag over the lamp is drawn back, allowing the light beam to pass through the slit and focus onto the end of the tail. A timer is simultaneously activated. The latency of a sudden flick of the tail is ascertained. Untreated mice usually react within 3-4 seconds after exposure to the lamp. The end point for protection is 10 seconds. Each mouse is tested at 0.5 and 2 hours after treatment with morphine and the test compound. Morphine has an MPE50 of 3.2-5.6 mg./kg. (s.c.).
as §1, §2, §3

[3] = Haffner Tail Pinch Procedure (rat tail clamp, RTC); format: in vivo, male albino rats, Charles River (Sprague-Dawley) CD strain; conditions: for ED50: sc, subcutaneously, rat tail clamp, read-out: Analgesic Activity ED50, RTC
Description: Effect on the Haffner Tail Pinch Procedure
A modification of the procedure of Haffner, Experimentelle Prufung Schmerzstillender. Deutch Med. Wschr., 55, 731-732 (1929) is used to ascertain the effects of the test compound on aggressive attacking responses elicited by a stimulus pinching the tail. Male albino rats (50-60 g.) of the Charles River (Sprague-Dawley) CD strain are used. Prior to drug treatment, and again at 0.5, 1, 2 and 3 hours after treatment, a Johns Hopkins 2.5-inch "bulldog" clamp is clamped onto the root of the rat's tail. The endpoint at each trial is clear attacking and biting behavior directed toward the offending stimulus, with the latency for attack recorded in seconds. The clamp is removed in 30 seconds if attacking has not yet occurred, and the latency of response is recorded as 30 seconds. Morphine is active at 17.8 mg./kg. (i.p.).
as §1, §2, §3

[4] = Mouse Hot Plate Analgesic Testing (HP); format: in vivo, mice; set-up: key to Analgesic Activity, HP (IA@10): IA: inactive
Description: (a) Mouse Hot Plate Analgesic Testing
The method used is modified after Woolfe and MacDonald, J. Pharmacol. Exp. Ther., 80, 300-307 (1944). A controlled heat stimulus is applied to the feet of mice on a 1/8-inch thick aluminum plate. A 250 watt reflector infrared heat lamp is placed under the bottom of the aluminum plate. A thermal regulator, connected to thermistors on the plate surface, programs the heat lamp to maintain a constant temperature of 57° C. Each mouse is dropped into a glass cylinder (61/2-inch diameter) resting on the hot plate, and timing is begun when the animal's feet touch the plate. The mouse is observed at 0.5 and 2 hours after treatment with the test compound for the first "flicking" movements of one or both hind feet, or until 10 seconds elapse without such movements. Morphine has an MPE50 =4-5.6 mg./kg. (s.c.).
as §1, §2, §3

[5] = subcutaneously, at 10 mg./kg., mouse hot plate

Structure (SMILES)	Analgesic Activity % Protection, PBQ [1]	ED50 [1]	other results
CC(CCCc1ccccc1)Oc1ccc([C@H]2CCC[C@H](O)C2)c(O)c1 (stereo partly drawn)	28%	–	–
CCCCCCC(C)(C)c1ccc([C@H]2CC[C@H](O)C2)c(O)c1 (relative stereo)	36%	–	–
Oc1cc(OCCCCc2ccccc2)ccc1[C@H]1CCC[C@H](O)C1 (relative stereo)	–	≥ 56 mg/kg	–
CCCCCCC(C)(C)c1ccc([C@]2(C)CCC[C@H](O)C2)c(O)c1 (relative stereo) [Z-3-[4-(1,1-dimethylheptyl)-2-hydroxyphenyl]-3-methylcyclohexanol]	–	≥ 56 mg/kg	–
CCCCCCC(C)(C)c1ccc([C@H]2C[C@@H](O)CC[C@@H]2C)c(O)c1 (relative stereo) [cis,trans-3-[4-(1,1-dimethylheptyl)-2-hydroxyphenyl]-4-methylcyclohexanol]	–	≤ 1 mg/kg	–
Oc1cc(OCCCCc2ccccc2)ccc1[C@@H]1CCC[C@H](O)C1 (relative stereo) [cis-3-[2-Hydroxy-4-(4-phenylbutyloxy)phenyl]cyclohexanol]	–	≤ 56 mg/kg	–
CCCCCCC(C)(C)c1ccc([C@@H]2CC(=O)CC[C@@H]2C)c(O)c1 (relative stereo) [cis-3-[4-(1,1-Dimethylheptyl)-2-hydroxyphenyl]-4-methylcyclohexanone]	–	1.51 mg/kg	–
CCCCCCC(C)(C)c1ccc([C@@H]2CC[C@H](O)C2)c(O)c1 (relative stereo) [cis-3-[4-(1,1-Dimethylheptyl)-2-hydroxyphenyl]cyclopentanol]	57%	–	–
CCCCCCC(C)(C)c1ccc([C@@H]2CCC[C@H](O)C2)c(O)c1 (relative stereo) [cis-3-[4-(1,1-dimethylheptyl) 2-hydroxyphenyl]cyclohexanol]	–	1.1 mg/kg	ED50 ("Flinch-Jump" Test (FJ)): 4 mg/kg; ED50 [2]: 6.8 mg/kg; ED50 [3]: 4.7 mg/kg
CCCCCCC(C)(C)c1ccc([C@@H]2CCCC[C@H](O)C2)c(O)c1 (relative stereo) [cis-3-[4-(1,1-dimethylheptyl)-2-hydroxyphenyl]cycloheptanol]	–	1.5 mg/kg	ED50 ("Flinch-Jump" Test (FJ)): 3.5 mg/kg; Analgesic Activity % Protection, HP [4, 5]: 27%; Analgesic Activity % Protection, TF [2]: 32%; ED50 [3]: 7.7 mg/kg
CCCCCCC(C)(C)c1ccc([C@@H]2C[C@@H](O)CC[C@H]2C)c(O)c1 (relative stereo) [trans,trans-3-[4-(1,1-dimethylheptyl)-2-hydroxyphenyl]-4-methylcyclohexanol]	–	0.5 mg/kg	–
CCCCCCC(C)(C)c1ccc([C@H]2CCC[C@H](O)C2)c(O)c1 (relative stereo) [trans-3-[4-(1,1-Dimethylheptyl)-2-hydroxyphenyl]cyclohexanol]	–	3.8 mg/kg	–
CCCCCCC(C)(C)c1ccc([C@H]2CCCC[C@H](O)C2)c(O)c1 (relative stereo) [trans-3-[4-(1,1-dimethylheptyl)-2-hydroxyphenyl]cycloheptanol]	–	1.53 mg/kg	ED50 ("Flinch-Jump" Test (FJ)): 5.4 mg/kg; Analgesic Activity, HP (IA@10) [4, 5]: IA; Analgesic Activity % Protection, TF [2]: 65%; ED50 [3]: 5.6 mg/kg
CCCCCCC(C)(C)c1ccc(C2CCCC(=O)C2)c(OCc2ccccc2)c1 (stereo not drawn) [3-[2-Benzyloxy-4-(1,1-dimethylheptyl)phenyl]cyclohexanone]	20%	–	–
CC(CCCc1ccccc1)Oc1ccc(C2CCCC(=O)C2)c(O)c1 (stereo not drawn) [3-[2-hydroxy-4-(2-(5-phenylpentyloxy))phenyl]cyclohexanone]	–	≥ 56 mg/kg	–
CCCCCCC(C)(C)c1ccc(C2(C)CCCC(=O)C2)c(O)c1 (stereo not drawn) [3-[4-(1,1-Dimethylheptyl)-2-hydroxyphenyl]-3-methylcyclohexanone]	31%	–	–
CCCCCCC(C)(C)c1ccc(C2CCCCC(=O)C2)c(O)c1 (stereo not drawn) [3-[4-(1,1-Dimethylheptyl)-2-hydroxyphenyl]cycloheptanone]	–	2.15 mg/kg	ED50 ("Flinch-Jump" Test (FJ)): 10.8 mg/kg; Analgesic Activity % Protection, HP [4, 5]: 33%; Analgesic Activity % Protection, TF [2]: 58%; ED50 [3]: 4.4 mg/kg
CCCCCCC(C)(C)c1ccc(C2=CC(=O)CCC2)c(O)c1 [3-[4-(1,1-Dimethylheptyl)-2-hydroxyphenyl]cyclohex-2-enone]	20%	–	–
CCCCCCC(C)(C)c1ccc(C2CCCC(=O)C2)c(O)c1 (stereo not drawn) [3-[4-(1,1-Dimethylheptyl)-2-hydroxyphenyl]cyclohexanone]	–	4.5 mg/kg	ED50 [2]: 15.3 mg/kg
CCCCCCC(C)(C)c1ccc(C2CCC(=O)C2)c(O)c1 (stereo not drawn) [3-[4-(1,1-Dimethylheptyl)-2-hydroxyphenyl]cyclopentanone]	15%	–	–
CN1CC[C@]23c4c5ccc(O)c4O[C@H]2[C@@H](O)C=C[C@H]3[C@H]1C5 [Morphine, reference compound]	–	–	MPE50, hot plate ([4]; s.c., mouse): 4 to 5.6 mg/kg; MPE50, tail flick ([2]; s.c., mouse): 3.2 to 5.6 mg/kg; activity in Haffner tail pinch ([3]; 17.8 mg./kg. (i.p.), rat): active
CC(CCCc1ccccc1)Oc1ccc([C@@H]2CCC[C@H](O)C2)c(O)c1 (stereo partly drawn) [cis-3-[2-hydroxy-4-(2-(5-phenylpentyloxy))phenyl]cyclohexanol]	–	38 mg/kg	–
O=C1CCCC(c2ccc(O)cc2O)C1 (stereo not drawn) [x=1; A+B=oxo; R2=H; R3=H; Z=O; W=H, 3-(2,4-Dihydroxyphenyl)cyclohexanone]	32%	–	–
COC12CCCC(C1)c1ccc(O)cc1O2 (stereo not drawn) [x=1; A+B=oxo^(c); R2=H; R3=H; Z=O; W=H, 3-(2,4-Dihydroxyphenyl)cyclohexanone Methyl Ketal]	43%	–	–
